Results as given in patent US9067928B2 (Genentech, Inc., priority 2008, dated 2015).
pIC50, pKi: −log10 of the molar value.

Assays:
Bcl-xL = target: T1, Bcl-xL (Homo sapiens, UniProt Q07817); assay: Alpha Screen Bcl-xL binding assay, competition with Bim26-mer; conditions: values listed in the order of Table 1; read-out: Alphascreen results (IC50)
T1 construct: made in house

Bcl-2 = target: T2, Bcl-2 (Homo sapiens, UniProt P10415); assay: TR-FRET binding assay, competition with F-Bak for Bcl-2 binding site; conditions: GST-Bcl-2, F-Bak probe
T2 construct: made in house
T2 sequence (P10415 whole entry, species assumed): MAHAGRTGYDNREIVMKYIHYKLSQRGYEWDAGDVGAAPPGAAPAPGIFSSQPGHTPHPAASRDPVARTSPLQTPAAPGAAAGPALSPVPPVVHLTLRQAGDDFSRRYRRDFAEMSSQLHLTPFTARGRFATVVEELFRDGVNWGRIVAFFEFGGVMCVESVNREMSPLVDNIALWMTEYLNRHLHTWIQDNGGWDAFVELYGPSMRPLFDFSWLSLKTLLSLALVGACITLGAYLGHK
Method: Test compounds were serially diluted in DMSO starting at 50 μM (2× starting concentration; 10% DMSO) and 10 μL transferred into a 384-well plate.
The samples are then mixed on a shaker for 1 minute then incubated for an additional 2 hours at room temperature. For each assay plate, a probe/antibody and protein/antibody/probe mixture were included as a negative and a positive control, respectively. Fluorescence was measured on the Envision (Perkin Elmer) using a 340/35 nm excitation filter and 520/525 (F-Bak) and 495/510 nm (Tb-labeled anti-his antibody) emission filters. Dissociation constants (Ki) were determined using Wang's equation (see, Wang, Z. X. An exact mathematical expression for describing competitive binding of two different ligands to a protein molecule. FEBS Lett. 1995 360:111-114). The TR-FRET assay can be performed in the presence of varying concentrations of human serum (HS) or fetal bovine serum (FBS).
For comparison, the measurement of the competition of compounds of the invention for other Bcl-2 family protein binding sites (e.g., Bcl-2, Mcl-1) using the TR-FRET binding assay was accomplish by substituting GST-Bcl-xL in the TR-FRET assay with other GST-labeled protein, e.g. GST-Bcl-2, GST-Mcl-1 prepared in-house.
For comparison, data (Ki in micromolar) from the measurement of the competition by certain compounds of the invention (i.e., compounds 1, 28, 38, 63, 71, 75, 80, 81, 92 and 94 in Table 1) with F-Bak for the Bcl-2 binding site using the TR-FRET binding assay are, 1.2, 0.15, 0.01, 0.018, 0.50, 0.272, 0.167, 0.66, 0.23 and 0.000003 respectively.

T1 sequence (Q07817 whole entry, species assumed): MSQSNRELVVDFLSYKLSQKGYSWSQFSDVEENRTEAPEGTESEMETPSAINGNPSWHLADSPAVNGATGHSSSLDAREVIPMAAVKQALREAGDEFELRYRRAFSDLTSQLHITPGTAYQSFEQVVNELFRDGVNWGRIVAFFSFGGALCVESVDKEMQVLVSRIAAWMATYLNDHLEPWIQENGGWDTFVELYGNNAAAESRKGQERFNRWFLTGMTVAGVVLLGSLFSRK

## O=C(O)c1nc(-c2ccc3c(c2)N(C(=O)Nc2nc4ccccc4s2)CCC3)sc1-c1ccc(-c2ccccc2)cc1 [Example 92, 2-(1-(benzo[d]thiazol-2-ylcarbamoyl)-1,2,3,4-tetrahydroquinolin-7-yl)-5-(biphenyl-4-yl)thiazole-4-carboxylic acid]
Bcl-xL
  pIC50: 8.70
Bcl-2
  pKi: 6.64
